Tests used:
[1] = tested on: 3α-hydroxysteroid oxidase; assay: Relative activities of the 3α-hydroxysteroid oxidase for various substrates; type: biochemical, Pseudomonas testosterone ATCC 11996; settings: substrate of the oxidase; R.A. of cholic acid being 100
Procedure: Thereafter, the microorganism was cultured at the same temperature for 10-24 hours. After completion of the culture, the resultant culture broth was centrifuged to separate and collect cells. The thus-collected cells were suspended at 5° C. in 5 volumes of a 0.02 M phosphate buffer of pH 7.0, which contained 1% (w/v) of "Triton X-100" (BDH Ltd.), to a total volume of 1 l. By a cell disrupter, DINO-MILL (trade mark; manufactured by Willy A. Bachofen Maschinenfabrik AG), the cells were disrupted to release the enzyme. […] The extract was then added with 430 g of ammonium sulfate to a final concentration of 65% saturation, the precipitated fraction was collected by centrifugation. The precipitate was dissolved in a 0.lM phosphate buffer (pH 7) containing 0.1% of "Triton X-100" and the resultant mixture was dialyzed for 24 hours against the same buffer in order to remove any remaining ammonium sulfate.
An azide was added as a preservative to the enzyme solution.

[2] = tested on: 3α-hydroxysteroid oxidase; assay: Enzymatic characteristics: substrate specificity and Km value; type: biochemical, Pseudomonas testosterone ATCC 11996

Q: For `C[C@]12CCC(=O)C[C@@H]1CC[C@@H]1[C@@H]2CC[C@]2(C)C(=O)CC[C@@H]12` [5α-Androstan-3,17-dione], which “R.A. (relative activity)” value [1] is on record?
A: The value was 0%.

Q: How did the “R.A. (relative activity)” value [1] turn out when `C[C@]12CC[C@@H](O)C[C@@H]1CC[C@@H]1[C@@H]2CC[C@]2(C)C(=O)CC[C@@H]12` [5α-Androstan-3α-ol-17-one] was run?
A: The value was 0%.

Q: With `C[C@]12CCC(=O)C[C@H]1CC[C@@H]1[C@@H]2CC[C@]2(C)C(=O)CC[C@@H]12` [5β-Androstan-3,17-dione] as the compound, how does the “R.A. (relative activity)” value [1] read?
A: Its value is 18%.

Q: For `C[C@@]12CCC[C@H]1[C@@H]1CC[C@@H]3C[C@H](O)CC[C@]3(C)[C@H]1CC2` [5β-androstan-3α-ol], which “Substrate specificity (oxidase acts on substrate or not)” value [2] is on record?
A: The value was “acts on”.

Q: For `C[C@H](CCC(=O)O)[C@H]1CC[C@H]2[C@@H]3[C@H](O)C[C@@H]4C[C@H](O)CC[C@]4(C)[C@H]3CC[C@]12C` [Chenodeoxycholic acid], which “R.A. (relative activity)” value [1] is on record?
A: The value was 89%.

Q: How did the “R.A. (relative activity)” value [1] turn out when `CC(C)CCC[C@@H](C)[C@H]1CC[C@H]2[C@@H]3CC=C4C[C@@H](O)CC[C@]4(C)[C@H]3CC[C@]12C` [Cholesterol] was run?
A: Its value is 0%.

Q: `C[C@H](CCC(=O)O)[C@H]1CC[C@H]2[C@@H]3[C@H](O)C[C@@H]4C[C@H](O)CC[C@]4(C)[C@H]3C[C@H](O)[C@]12C` [Cholic acid] was tested. Which “R.A. (relative activity)” value [1] did it give?
A: Its value is 100%.

Q: Which “R.A. (relative activity)” value [1] does the source give for `C[C@H](CCC(=O)O)[C@H]1CC[C@H]2[C@@H]3CC[C@@H]4C[C@H](O)CC[C@]4(C)[C@H]3CC[C@]12C` [Cithocholic acid] here?
A: The value was 57%.

Q: Which “R.A. (relative activity)” value [1] does the source give for `C[C@H](CCC(=O)O)[C@H]1CC[C@H]2[C@@H]3CC[C@@H]4C[C@H](O)CC[C@]4(C)[C@H]3C[C@H](O)[C@]12C` [Deoxycholic acid] here?
A: Its value is 86%.

Q: `C[C@]12CC[C@@H](O)C[C@H]1CC[C@@H]1[C@@H]2CC[C@]2(C)C(=O)CC[C@@H]12` [Ethiocholan-3α-ol-17-one] was tested. Which “R.A. (relative activity)” value [1] did it give?
A: The value was 140%.

Q: What about the Km ([2]; against ethiocholan-3α-ol-17-one) of the same compound?
A: Its Km is 800 µM.

Q: `C[C@H](CCC(=O)NCC(=O)O)[C@H]1CC[C@H]2[C@@H]3[C@H](O)C[C@@H]4C[C@H](O)CC[C@]4(C)[C@H]3C[C@H](O)[C@]12C` [Glycocholic acid] was tested. Which “R.A. (relative activity)” value [1] did it give?
A: The value was 95%.

Q: How did the “R.A. (relative activity)” value [1] turn out when `C[C@]12CC[C@H]3[C@@H](CCC4=CC(=O)CC[C@@]43C)[C@@H]1CC[C@@H]2O` [Testosterone] was run?
A: The value was 0%.
